According to article PMC5471452, “Optical control of a receptor-linked guanylyl cyclase using a photoswitchable peptidic hormone” (Chemical Science, 2017):

What was measured:
[1] = test system: pancreatic beta cells in islets of Langerhans; experiment: Calcium imaging of beta cells in intact islets of Langerhans; type: cell-based, CD1 mice; settings: for effect on amplitude of intracellular Ca2+ fluxes in beta cells, in words: intact islets, 8 mM glucose, ANP 0.1–100 nM, TOP271 isomers 1–100 nM, n = 4–6 islets for each concentration
Method: Reversibility could be achieved by applying cis-TOP271 and then illuminating with blue light (λ = 458–482 nm) to induce trans-isomerisation (Fig. 4i and j). Restoration of beta cell function was only partial (Fig. 4j), however, possibly due to cGMP-mediated sequestration of Ca^2+ into internal stores such as the endoplasmic reticulum.[61] […]
CD1 mice were maintained in a specific pathogen-free facility under a 12 h light–dark cycle with ad libitum access to water and food. Animals were euthanized by cervical dislocation and islets isolated using collagenase digestion. Islets were cultured overnight in Roswell Park Memorial Institute (RPMI) medium supplemented with 10% foetal calf serum and 100 U/mL penicillin and 100 µg/mL streptomycin. No randomization was used for animal experimentation, since mice were only used as tissue donors.
Experimental protocols were approved by the University of Birmingham's Animal Welfare and Ethical Review Body (AWERB) and carried out in accordance with the Animals (Scientific Procedures) Act 1986 of the United Kingdom.
Islets were loaded for 40 min with Fluo8 (AAT Bioquest, Sunnyvale, CA, USA), before imaging using a Crest X-Light spinning disk head coupled to a Nikon Ti-E automated base and 10 x/0.4 NA objective. Pulsed excitation was delivered at λ = 458–482 nm (400 ms exposure; 0.33 Hz) via a Lumencor Spectra X Light Engine, and emitted signals detected at λ = 500–550 nm using a Photometrics Evolve Delta 512 EMCCD.
Illumination to induce photoswitching was performed using either continuous exposure to λ = 458–482 nm or λ = 382–407 nm. In all cases, HEPES-bicarbonate buffer was used, containing in mM: 120 NaCl, 4.8 KCl, 24 NaHCO3, 0.5 Na2HPO4, 5 HEPES, 2.5 CaCl2, 1.2 MgCl2, 8 D-glucose. Ca2+ traces were normalized as F/Fmin (F = fluorescence at any given timepoint; Fmin = minimum fluorescence) and relative change in this value over time denoted by a scale bar.
Non-multifactorial comparisons were made using Student’s t-test. Multifactorial comparisons were prepared using one-way ANOVA. Log-transformed concentration-response curves were fitted using non-linear regression and the Hill equation. All analyses were conducted using Graphpad Prism (Graphpad software) and IgorPro (WaveMetrics software), and results deemed significant * at P<0.05 or ** at P<0.01.

[2] = ex vivo or in vivo, depending on cell environment or azoreductase expression; cited from earlier work
Description: Acting via the NPR-A receptor to generate cGMP, TOP271 allows the reversible photocontrol of contraction/dilation in aortic tissue, as well as Ca^2+ oscillations in rodent islets of Langerhans. Although photodependent cGMP synthesis was described earlier, these approaches rely on the genetically-encoded photosensitive proteins EROS[64],[65] or BeCyclOps,[66],[67] whereas TOP271 allows unprecedented photocontrolled cGMP synthesis in nativ ...

[3] = test system: murine thoracic aortic rings; experiment: Aortic tensometry, pre-constricted aortic rings; parameters: species or system C57BL/6 mice; settings: for vasodilation of pre-constricted aortic rings, in words: rings pre-contracted with 1 µM phenylephrine, 200 μM L-NAME and 3 μM diclofenac present, n = 6 aortic rings from 4 animals
Method: We next sought to address whether TOP271 would allow the optical control of cGMP-dependent processes in a physiologically relevant system, i.e. the aortic ring preparation. […] Accordingly, we predicted that TOP271 would allow reversible, light-controlled vasoactive responses, with cis-TOP271 being the stronger effector at specific concentrations. […] Although this concentration–response indicated a significant difference in receptor activation for 100 nM TOP271, we decided to use 400 nM TOP271 to trigger a stronger isomer-dependent vasodilation.
Fig. 3 TOP271 allows photocontrol of aortic tissue. (a) Concentration-response curves for trans- and cis-TOP271. (b) Aortic relaxation for cycles in (d) and (e). […] (d, e) Reversible photocontrol over aortic tension by application of trans-TOP271 (d) and cis-TOP271 (e) with UV-/blue and blue/UV-light (365 and 460 nm) cycles, respectively. All experiments were conducted in the presence of 200 μM N-ω-nitro-L-arginine methyl ester (L-NAME) and 3 μM diclofenac, which were used to block the vascular relaxants nitric oxide and prostacyclin, respectively. PE = phenylephrine was used for initial vasoconstriction, IBMX = 3-iso-butyl-1-methylxanthine was used to induce complete muscular relaxation as an end point control. (n = 6 aortic rings from 4 animals) (*P < 0.05, **P < 0.01, repeated measures Student's t-test). Values represent the mean ± SEM. […]
Murine thoracic aortic rings were mounted in a myograph as described recently16. In detail, thoracic aortas from C57BL/6 mice were explanted and cut into rings and mounted on fixed segment support pins in two four-chamber Myograph 610 (Danish Myo Technology, Aarhus, Denmark) containing 5 ml of Krebs–Henseleit solution (containing […]
glucose, pH 7.4), bubbled with 95% O2 and 5% CO2. Resting tension was set to 5 mN in the presence of Diclofenac (3 µM) and N-nitro-L-arginine methyl ester (L-NAME) (200 µM). After equilibration (45 minutes at 37 °C), rings were pre-contracted with 1 µM phenylephrine (PE). Since aortic ring myography is sensitive to temperature fluctuations, effects of direct and indirect illumination on vasoactivity were determined. […] The vasorelaxing effects of pre-illuminated cis- and dark trans-TOP271 were assessed once a steady plateau was reached. […]
were prepared (10 mM in water), of which an aliquot of TOP271 was either pre-illuminated at λ = 365 nm using a UVP 3UV benchtop UV lamp to obtain the cis-isomer, or kept in the dark to maintain the trans-isomer. […] Read-out was conducted in between illumination cycles as soon as a steady plateau was reached to exclude any light dilational effects. […]

NPR-A = molecular target: T1, NPR-A (Homo sapiens, UniProt P16066); experiment: cGMP assay (HTRF) in HEK293T cells transiently transfected with NPR-A; type: cell-based; settings: in vitro
T1 construct: expressed in transfected cells; host or cells: HEK293t cells (DSMZ #305), transiently co-transfected with pCMV5_GC-A and YFP
T1 sequence (P16066 33-1061): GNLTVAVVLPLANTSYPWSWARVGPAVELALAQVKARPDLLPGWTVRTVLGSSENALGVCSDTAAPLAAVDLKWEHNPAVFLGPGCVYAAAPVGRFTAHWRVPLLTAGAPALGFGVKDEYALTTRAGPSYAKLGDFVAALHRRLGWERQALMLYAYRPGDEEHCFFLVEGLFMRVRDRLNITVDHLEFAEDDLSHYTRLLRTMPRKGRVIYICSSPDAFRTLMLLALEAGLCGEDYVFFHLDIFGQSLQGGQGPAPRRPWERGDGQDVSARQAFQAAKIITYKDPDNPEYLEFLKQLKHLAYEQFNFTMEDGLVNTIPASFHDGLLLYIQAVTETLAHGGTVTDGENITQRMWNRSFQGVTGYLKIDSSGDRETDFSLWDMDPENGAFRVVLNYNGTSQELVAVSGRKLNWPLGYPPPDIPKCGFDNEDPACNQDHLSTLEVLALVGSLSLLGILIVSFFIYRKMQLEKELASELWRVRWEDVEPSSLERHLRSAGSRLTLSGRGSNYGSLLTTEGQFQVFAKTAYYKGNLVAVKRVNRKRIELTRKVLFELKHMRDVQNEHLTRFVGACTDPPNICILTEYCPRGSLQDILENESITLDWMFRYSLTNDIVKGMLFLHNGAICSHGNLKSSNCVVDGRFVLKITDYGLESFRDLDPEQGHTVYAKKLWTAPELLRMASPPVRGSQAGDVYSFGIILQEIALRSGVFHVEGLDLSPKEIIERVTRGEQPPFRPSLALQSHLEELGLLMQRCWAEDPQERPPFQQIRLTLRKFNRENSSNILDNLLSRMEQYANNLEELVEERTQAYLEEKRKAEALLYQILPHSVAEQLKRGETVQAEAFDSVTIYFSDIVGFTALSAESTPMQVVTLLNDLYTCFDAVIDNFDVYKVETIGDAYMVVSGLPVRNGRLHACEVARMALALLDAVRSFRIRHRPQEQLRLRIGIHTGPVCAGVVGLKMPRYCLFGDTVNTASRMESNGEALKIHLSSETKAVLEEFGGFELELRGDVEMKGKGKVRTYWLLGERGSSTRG
Method: To test cGMP synthesis, each peptide was applied as the trans- or cis-isomer by keeping them either in the dark or pre-illuminating with UV light (λ = 365 nm) for 15 minutes, respectively.
cGMP assay in transiently transfected HEK293t cells
HEK293t cells (obtained from the Leibniz-Institute DSMZ, Braunschweig, Germany, #305, regularly mycoplasma tested) were transfected with pCMV5_GC-A 4 and YFP using Lipofectamine 2000® (Life Science, Indianapolis, IN, USA) at >80% confluency in a T25 flask according to the manufacturer’s instructions. After 24 h, cells were checked by means of YFP fluorescence for successful transfection (>70% efficiency), washed once and harvested with 1 mL Hepes-Krebs-Ringer (HKR) buffer (containing in mM: 135 NaCl, 5 KCl, 1 MgSO4, 0.4 K2HPO4, 5.5 D-glucose, 20 HEPES, 1 CaCl2, pH = 7.4) supplemented with PDE inhibitors IBMX (500 µM, Tocris, Bristol, UK, #2840) and Ro
µL of cell solution was pipetted into each well of a 384-well plate (white, flat bottom, Greiner, Frickenhausen, Germany). […] The resulting assays were incubated for 30 min before they were lysed and treated with a cGMP HTRF kit (Cisbio, Codolet, France) according to the manufacturer’s instructions. cGMP levels were read with a Omega platereader (BMG Labtech, Offenburg, Germany) after 1 h of incubation time and normalized according to the cGMP standards. […]

[4] = in benzene at 0 °C; cited from earlier work
Method: As expected for an electron-poor azobenzene, all peptides were bistable (TOP271 Fig. 2c, TOP263-270 ESI Fig. 3 ^†). ^¶ ¶All peptides are available for academic use from the Hoffmann-Röder lab upon request. This advantageous trait allows samples to be pre-illuminated prior to application rather than needing constant illumination. […], and because the compounds were bistable, the initial back-relaxation was obtained as a linear function from the first 30 min after ceasing illumination. P ...

CC[C@H](C)[C@@H]1NC(=O)[C@H](CCCNC(=N)N)NC(=O)[C@H](CC(=O)O)NC(=O)[C@H](CCSC)NC(=O)[C@H](CCCNC(=N)N)NC(=O)CNC(=O)CNC(=O)[C@H](Cc2ccccc2)NC(=O)[C@@H](NC(=O)[C@H](CO)NC(=O)[C@H](CO)NC(=O)[C@H](CCCNC(=N)N)NC(=O)[C@H](CCCNC(=N)N)NC(=O)[C@H](CC(C)C)NC(=O)[C@@H](N)CO)CSSC[C@@H](C(=O)N[C@@H](CC(N)=O)C(=O)N[C@@H](CO)C(=O)N[C@@H](Cc2ccccc2)C(=O)N[C@@H](CCCNC(=N)N)C(=O)N[C@@H](Cc2ccc(O)cc2)C(=O)O)NC(=O)CNC(=O)[C@H](CC(C)C)NC(=O)CNC(=O)[C@H](CO)NC(=O)[C@H](CCC(N)=O)NC(=O)[C@H](C)NC(=O)CNC1=O [ANP, human atrial natriuretic peptide, reference compound]
effect on amplitude of intracellular Ca2+ fluxes in beta cells, in words [1]: suppressed beta cell function
pancreatic beta cell Ca2+ spiking frequency ([1]; low (0.1 nm) but not high (10 nm) concentration, n = 5-7 islets for each concentration): stimulate increases

CCN(CC)c1ccc(/N=N/c2ccc(S(=O)(=O)NC(=O)NC3CCCCC3)cc2)cc1 [JB253]
degradation of the diazene unit [2]: not the case

CC[C@H](C)[C@@H]1NC(=O)[C@H](CCCNC(=N)N)NC(=O)[C@H](CC(=O)O)NC(=O)[C@H](CCSC)NC(=O)[C@H](CCCNC(=N)N)NC(=O)CNC(=O)CNC(=O)[C@H](Cc2ccccc2)NC(=O)[C@@H](NC(=O)[C@H](CO)NC(=O)[C@H](CO)NC(=O)[C@H](CCCNC(=N)N)NC(=O)[C@H](CCCNC(=N)N)NC(=O)[C@H](CC(C)C)NC(=O)[C@@H](N)CO)CSSC[C@@H](C(=O)N[C@@H](CC(N)=O)C(=O)N[C@@H](CO)C(=O)N[C@@H](Cc2ccccc2)C(=O)N[C@@H](CCCNC(=N)N)C(=O)N[C@@H](Cc2ccc(O)cc2)C(=O)O)NC(=O)Cc2cccc(c2)/N=N\c2cccc(c2)CNC(=O)[C@H](CCC(N)=O)NC(=O)[C@H](C)NC(=O)CNC1=O [cis-TOP271]
restoration of beta cell function after blue light (458–482 nm) trans-isomerisation ([1]; cis-TOP271 applied, then blue light, n = 5 islets): only partial
effect on amplitude of intracellular Ca2+ fluxes in beta cells, in words [1]: robustly suppressed Ca^2+ rises
speed of the initial vasodilation, cis- compared to trans-TOP271 ([3]; 400 nM, aortic rings): 1.5 ×
vasodilation of pre-constricted aortic rings, in words ([3]; 400 nM): potent vasodilation
vasodilation concentration-response, cis- versus trans-isomer ([3]; pre-illuminated isomers, 100 nM to 1 μM range, pre-constricted aortic rings): increased potency
fold higher potency of cis- over trans-isomer for cGMP generation (NPR-A): 4 fold

CC[C@H](C)[C@@H]1NC(=O)[C@H](CCCNC(=N)N)NC(=O)[C@H](CC(=O)O)NC(=O)[C@H](CCSC)NC(=O)[C@H](CCCNC(=N)N)NC(=O)CNC(=O)CNC(=O)[C@H](Cc2ccccc2)NC(=O)[C@@H](NC(=O)[C@H](CO)NC(=O)[C@H](CO)NC(=O)[C@H](CCCNC(=N)N)NC(=O)[C@H](CCCNC(=N)N)NC(=O)[C@H](CC(C)C)NC(=O)[C@@H](N)CO)CSSC[C@@H](C(=O)N[C@@H](CC(N)=O)C(=O)N[C@@H](CO)C(=O)N[C@@H](Cc2ccccc2)C(=O)N[C@@H](CCCNC(=N)N)C(=O)N[C@@H](Cc2ccc(O)cc2)C(=O)O)NC(=O)Cc2cccc(c2)/N=N/c2cccc(c2)CNC(=O)[C@H](CCC(N)=O)NC(=O)[C@H](C)NC(=O)CNC1=O [trans-TOP271]
effect on amplitude of intracellular Ca2+ fluxes in beta cells, in words [1]: only a small decrease
vasodilation of pre-constricted aortic rings, in words ([3]; 400 nM): strong vasodilation

c1ccc(/N=N/c2ccccc2)cc1 [unsubstituted azobenzene, azobenzene]
k obs thermal relaxation [4]: 3.58 × 10^–4 a.u. min^–1
